# Assay results published in patent US8076488B2, “Bicyclic urea derivatives useful in the treatment of cancer and other disorders” (Bayer Healthcare LLC, priority 2003, dated 2011).
# Molecular target: T1, c-Raf kinase (Lck-activated c-Raf, Raf-1) (Homo sapiens, UniProt P04049)
# T1 construct: GST-c-Raf (from amino acid 302 to amino acid 648); made in house; host or cells: Sf9 insect cells (baculovirus; co-infection with full-length Lck)
# Assay: c-Raf (Raf-1) biochemical assay (radioactive filtermat assay, MEK-1 substrate)
# Conditions: at 1 micromolar compound; 5 μM ATP, 32° C., 1 hour
# Experimental: Biological Tests c-Raf (Raf-1) Biochemical Assay Purification of Proteins Used in the Assay
# The c-Raf biochemical assay was performed with a c-Raf enzyme that was activated (phosphorylated) by Lck kinase. Lck-activated c-Raf (Lck/c-Raf) was produced in Sf9 insect cells by co-infecting cells with baculoviruses expressing, under the control of the polyhedrin promoter, GST-c-Raf (from amino acid 302 to amino acid 648) and Lck (full-length). Both baculoviruses were used at the multiplicity of infection of 2.5 and the cells were harvested 48 hours post infection.
# MEK-1 protein was produced in Sf9 insect cells by infecting cells with the baculovirus expressing GST-MEK-1 (full-length) fusion protein at the multiplicity of infection of 5 and harvesting the cells 48 hours post infection. Similar purification procedure was used for GST-c-Raf 302-648 and GST-MEK-1.
# Transfected cells were suspended at 100 mg of wet cell biomass per mL in a buffer containing 10 mM sodium phosphate, 140 mM sodium chloride pH 7.3, 0.5% Triton X-100 and the protease inhibitor cocktail. The cells were disrupted with Polytron homogenizer and centrifuged 30,000 g for 30 minutes. The 30,000 g supernatant was applied onto GSH-Sepharose. The resin was washed with a buffer containing 50 mM Tris, pH 8.0, 150 mM NaCl and 0.01% Triton X-100. The GST-tagged proteins were eluted with a solution containing 100 mM Glutathione, 50 mM Tris, pH 8.0, 150 mM NaCl and 0.01% Triton X-100. The purified proteins were dialyzed into a buffer containing 20 mM Tris, pH 7.5, 150 mM NaCl and 20% Glycerol.
# Biochemical Assay Protocol and Results
# The compounds were serially diluted in DMSO using three-fold dilutions to stock concentrations ranging typically from 50 μM to 20 nM (final concentrations in the assay range from 1 μM to 0.4 nM). The c-Raf biochemical assay was performed as a radioactive filtermat assay in 96-well Costar polypropylene plates (Costar 3365). The plates were loaded with 75 μL solution containing 50 mM HEPES pH 7.5, 70 mM NaCl, 80 ng of Lck/c-Raf and 1 μg MEK-1. Subsequently, 2 μL of the serially diluted individual compounds were added to the reaction, prior to the addition of ATP. The reaction was initiated with 25 μL ATP solution containing 5 μM ATP and 0.3 μCi [33P]-ATP. The plates were sealed and incubated at 32° C. for 1 hour. The reaction was quenched with the addition of 50 μl of 4% Phosphoric Acid and harvested onto P30 filtermats (PerkinElmer) using a Wallac Tomtec Harvester. Filtermats were washed with 1% Phosphoric Acid first and deinonized H2O second. The filters were dried in a microwave, soaked in scintillation fluid and read in a Wallac 1205 Betaplate Counter (Wallac Inc., Atlanta, Ga., U.S.A.). The results were expressed as percent inhibition. % Inhibition=[[…]]×100 where • Tib=(counts per minute with inhibitor)−(background) • Ti=(counts per minute without inhibitor)−(background)
# T1 sequence (P04049 302-648): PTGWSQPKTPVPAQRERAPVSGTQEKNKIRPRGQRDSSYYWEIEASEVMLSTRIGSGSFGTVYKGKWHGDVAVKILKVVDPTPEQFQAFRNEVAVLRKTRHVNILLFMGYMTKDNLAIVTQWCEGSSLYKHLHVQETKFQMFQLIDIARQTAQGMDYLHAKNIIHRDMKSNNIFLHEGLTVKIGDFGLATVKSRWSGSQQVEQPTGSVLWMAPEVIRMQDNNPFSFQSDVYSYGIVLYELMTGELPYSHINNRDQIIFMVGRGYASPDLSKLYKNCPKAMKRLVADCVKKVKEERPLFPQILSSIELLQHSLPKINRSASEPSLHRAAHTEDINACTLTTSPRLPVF
row,Structure (SMILES),inhibition at 1 µM [%]
1,Cn1ncc2cc(NC(=O)Nc3ccc(Oc4ccnc(C(=O)NCCN5CCCC5)c4)cc3)ccc21 [Example 156],> 40
2,Cn1ncc2cc(NC(=O)Nc3ccc(Oc4ccnc(C(=O)NCCN5CCNCC5)c4)cc3)ccc21 [Example 157],> 40
3,O=C(Nc1ccc(Oc2ccnc(C(=O)NCCCn3ccnc3)c2)cc1)Nc1ccc2c(c1)OCCO2 [Example 158],> 40
4,O=C(Nc1ccc(Oc2ccnc(C(=O)NCCN3CCCC3)c2)cc1)Nc1ccc2c(c1)OCCO2 [Example 159],> 40
5,Cn1ncc2cc(NC(=O)Nc3ccc(Oc4ccnc(C(=O)NCCCn5ccnc5)c4)cc3)ccc21 [Example 160],> 40
6,Cn1ncc2cc(NC(=O)Nc3ccc(Oc4ccnc(C(=O)NCCN5CCCCC5)c4)cc3)ccc21 [Example 161],> 40
7,Cn1ncc2cc(NC(=O)Nc3ccc(Oc4ccnc(C(=O)NCC5CC5)c4)cc3)ccc21 [Example 162],> 40
8,Cn1ncc2cc(NC(=O)Nc3ccc(Oc4ccnc(C(=O)NC5CCC5)c4)cc3)ccc21 [Example 163],> 40
9,Cn1ncc2cc(NC(=O)Nc3cccc(Oc4ccnc(C(=O)NCCCn5ccnc5)c4)c3)ccc21 [Example 166],> 40
10,O=C(Nc1cccc(Oc2ccnc(C(=O)NCCN3CCCC3)c2)c1)Nc1ccc2c(c1)C(F)(F)OC(F)(F)O2 [Example 168],> 40
11,O=C(Nc1cccc(Oc2ccnc(C(=O)Nc3cccnc3)c2)c1)Nc1ccc2c(c1)C(F)(F)OC(F)(F)O2 [Example 169],> 40
